Measurements published in US10456405B2, “Nitric oxide-releasing prodrug molecule of substituted quinazolines” (ZHEJIANG HUAHAI PHARMACEUTICAL CO., LTD, priority 2015, dated 2019).

Experiments:
[1] = Release of nitric oxide in vitro (Griess reagent, nitrite); conditions: 10^−4 mol/L tested substance, phosphate buffer pH 7.4, cysteine 5 mmol/L, 37° C., 1 h; as nitrite
Method: Experiment 1. Experimental Study on the Tested Compounds for Releasing Nitric Oxide in vitro
Experimental Procedure: • (1) Preparation of Griess Reagent: 4 g of aminobenzenesulfonamide, 0.2 g of N-naphthyl ethylene diamine hydrochloride, and 10 mL of 85% phosphoric acid solution were taken to form a solution, which is diluted to 100 mL with distilled water. • (2) Plotting of the standard curve: a serie of standard solution of 0.01, 0.03, 0.05, 0.07, 0.09, 0.2, 0.4 μg/mL of nitrite nitrogen was prepared, 10 mL of each was taken to sufficiently mix with 2.5 mL of Griess reagent, standing at room temperature for 10 min, and its absorbance value at the wavelength of 540 nm was measured. The standard curve was plotted based on the resulting data. • (3) Measuring the amount of the released NO of the tested drug: all of the tested substances were dissolved in dimethylsulfoxide (1 mL) firstly. Then phosphate buffer (pH 7.4) was slowly added dropwise, and shaken. The drug solution was diluted to 50 mL, allowing the buffer solution to contain excess cysteine (5 mmol/L), and the final concentration of the tested substances being 10^−4 mol/L; the solution was incubated at 37° C. 2 mL of the reaction solution was taken to mix with 500 μl of Griess reagent at 1 h respectively, standing at room temperature for 10 min. The absorbance value of the mixture at 540 nm was measured. Isosorbide mononitrate was used as a positive control, and H130 was used as a negative control. The amount of the released NO was represented by the amount of its oxidation product, nitrite (NO2^−).

[2] = test system: ApoA-I mRNA; assay: Regulation of ApoA-I mRNA in HepG2 cells (real-time PCR); assay type: cell-based; design: key: Active: When 100 μM of the tested compound allowed ApoA-I mRNA in HepG2 cells to increase more than 15%, then the test compound was known as an ApoA active compound; conditions: 100 μM, 48 h, relative to DMSO control
Method: Experiment 5. Regulation of the Tested Compounds on ApoA-I mRNA HepG2 cells were cultured for 24 h in a 24-well plate with 400 μl of MEM medium containing 0.5% (v/v) of fetal bovine serum. Then each of the tested compounds (100 μM) and the positive control RVX-208 (100 μM) were added. The cells were cultured for another 48 h. The medium was aspirated out. After washing with 200 μl of PBS, 85 μl of cell lysis solution was added into the cells in each well. The cells were incubated at room temperature for 5 to 10 min to be completely dissolved and detached. The mRNA was extracted from the cells with a kit. The extracted mRNA were used for a real-time fluorescence quantitative PCR detection with RNA Fluorescence (RiboGreen) Quantitation Assay Kit and ApoA-I mRNA Primer-Probe Mixture from the company of Applied Biosystems.
After obtaining the Ct values, the induction fold of each test compound relative to DMSO control was calculated. The induction fold was used to reflect the ability of regulating ApoA-I mRNA for the tested compounds. When 100 μM of the tested compound allowed ApoA-I mRNA in HepG2 cells to increase more than 15%, then the test compound was known as an ApoA active compound.

[3] = Plasma stability in vitro, mouse plasma; conditions: for Content of Tested Substance (n = 2): CD-1 mice plasma, 2 μM, 37° C., in % (unit assumed)
Method: (§1) Experimental method: The tested compounds (2 μM) were added into mouse or human plasma, and incubated at 37° C. Samples were taken at 0, 10, 30, 60 and 120 min respectively. The reaction was stopped by adding a stop agent. The mixture was sufficient shaken, and centrifuged at 4000 rpm for 10 min at 4° C. The supernatant was taken. The concentrations of the tested compounds and their metabolite (H130) in the supernatant were measured by LC-MS/MS.

[4] = Plasma stability in vitro, human plasma; conditions: for Content of Tested Substance (n = 2): human plasma, 2 μM, 37° C., in % (unit assumed)
Method: as §1

Content of Tested Substance (n = 2) ([3]; 0 min) | Content of Tested Substance (n = 2) ([3]; 10 min) | Content of Tested Substance (n = 2) ([3]; 30 min) | Content of Tested Substance (n = 2) ([3]; 60 min) | Content of Tested Substance (n = 2) ([3]; 120 min) | stability in mouse plasma ([3]; within 2 h) | Content of Tested Substance (n = 2) ([4]; 0 min) | Content of Tested Substance (n = 2) ([4]; 10 min) | Content of Tested Substance (n = 2) ([4]; 30 min) | Content of Tested Substance (n = 2) ([4]; 60 min) | Content of Tested Substance (n = 2) ([4]; 120 min) | stability in human plasma ([4]; within 2 h) | Molecule | Amount of Released No [1] | Upregulation of Apoa-I Mrna Level [2]
100.0 | 101.4 | 94.8 | 99.7 | 99.1 | good stability | 100.0 | 99.5 | 96.4 | 97.5 | 95.8 | good stability | COc1cc(OC)c2c(=O)[nH]c(-c3cc(C)c(OCCO[N+](=O)[O-])c(C)c3)nc2c1 [Compound H101, 2-(4-(2-nitrooxy-ethoxy)-3,5-dimethylphenyl)-5,7-dimethoxyquinazolin-4(3H)-one] | 5.97 µM | Active
– | – | – | – | – | – | – | – | – | – | – | – | 2-[4-(5,7-dimethoxy-4-oxo-3,4-dihydro-quinazolin-2-yl)-2,6-dimethyl-phenoxy]-ethyl 4-(2-oxo-3-nitroxymethyl-1,2,5-oxadiazol-3-methyl)oxy-4-oxo-butyrate [Compound H111] | 52.12 µM | Active
– | – | – | – | – | – | – | – | – | – | – | – | COc1cc(OC)c2c(=O)[nH]c(-c3cc(C)c(OCCOC(=O)OC4COC5C(O[N+](=O)[O-])COC45)c(C)c3)nc2c1 (stereo not drawn) [Compound H119, 2-[4-(5,7-dimethoxy-4-oxo-3,4-dihydro-quinazolin-2-yl)-2,6-dimethyl-phenoxy]-ethyl (6-nitroxy-hexahydrofuro[3,2-b]furan-3-yl)-carbonate] | 1.24 µM | Active
